From patent US7777000B2, “Anti-viral activity of cathelicidin peptides” (priority 2003, dated 2010)
“And” between values parts separate entries of the source, which are not always exact repeats. Equal values may be shown once. “Also recorded” adds a separate entry of the source. Where no end group is shown, it is not given here.

Tests used:
[1] = tested on: vaccinia virus; format: cell-based, vaccinia virus (Wyeth strain)
[2] = tested on: vaccinia virus; format: cell-based, vaccinia virus (Wyeth strain); remark: listed apart in the source
[3] = tested on: vaccinia virions (IMV); set-up: species or system vaccinia virus (Wyeth strain); conditions: for alteration of virion structure: 25 μM
[4] = tested on: E. coli ML35p; experiment: Minimum bactericidal concentration / antimicrobial activity against E. coli ML35p; format: cell-based; conditions: for Minimum Bactericidal Concentration: mean of three independent experiments

Row | Molecule | contact time with vaccinia required to detect antiviral activity [1] | effective antiviral concentration relative to that required for killing of S. aureus [1] | lowest concentration with significant reduction in viral replication [1] | amount of viral mRNA in the tissue culture cells [2] | Altered virions (%) [3] | Altered virions/virion number [3] | antimicrobial activity against E. coli ML35p [4] | inhibition of vaccinia virus replication (plaque-forming units) [1] | effect on the structure of the IMV (electron microscopy) [3] | alteration of virion structure [3] | inhibition of vaccinia virus replication at concentrations as high as 50 μM [1] | Minimum Bactericidal Concentration [4] | Minimum Bactericidal Concentration ([4]; listed as HNP)
1 | CC[C@H](C)[C@H](NC(=O)[C@H](CCCCN)NC(=O)[C@H](CCC(=O)O)NC(=O)[C@H](CCCCN)NC(=O)[C@H](CO)NC(=O)[C@H](CCCCN)NC(=O)[C@H](CCCNC(=N)N)NC(=O)[C@H](Cc1ccccc1)NC(=O)[C@H](Cc1ccccc1)NC(=O)[C@H](CC(=O)O)NC(=O)CNC(=O)[C@H](CC(C)C)NC(=O)[C@@H](N)CC(C)C)C(=O)NCC(=O)N[C@@H](CCCCN)C(=O)N[C@@H](CCC(=O)O)C(=O)N[C@@H](Cc1ccccc1)C(=O)N[C@@H](CCCCN)C(=O)N[C@@H](CCCNC(=N)N)C(=O)N[C@H](C(=O)N[C@H](C(=O)N[C@@H](CCC(N)=O)C(=O)N[C@@H](CCCNC(=N)N)C(=O)N[C@H](C(=O)N[C@@H](CCCCN)C(=O)N[C@@H](CC(=O)O)C(=O)N[C@@H](Cc1ccccc1)C(=O)N[C@@H](CC(C)C)C(=O)N[C@@H](CCCNC(=N)N)C(=O)N[C@@H](CC(N)=O)C(=O)N[C@@H](CC(C)C)C(=O)N[C@H](C(=O)N1CCC[C@H]1C(=O)N[C@@H](CCCNC(=N)N)C(=O)N[C@H](C(=O)N[C@@H](CCC(=O)O)C(=O)N[C@@H](CO)C(=O)O)[C@@H](C)O)C(C)C)[C@@H](C)CC)C(C)C)[C@@H](C)CC [LL-37, LLGDFFRKSK EKIGKEFKR1 VQRIKDFLRN LVPRTES] | At least one hour | at least one log lower | 25 µM | decreased in proportion to the concentration | 67% and 90% and 95% | 19/28 and 27/30 and 39/41 | within reported parameters |  |  |  |  |  | 
2 | GLLRKGGEKIGEKLKKIGQKIKNFFQKLVPQPEQ (GLLRKGGEKIGEKLKKIGQKIKNFFQKLVPQPEQ) [CRAMP] |  | at least one log lower | 25 µM | decreased in proportion to the concentration |  |  | within reported parameters | concentration-dependent inhibition; also recorded: able to kill vaccinia virus |  |  |  |  | 
3 | GLNGPDIYKGUYQFKSVEFD [Peptide 8044] |  |  |  |  |  |  | no antimicrobial activity; also recorded: did not exhibit antimicrobial activity; also recorded: ^aControl peptide 8044 did not possess antimicrobial activity against ML35p | did not inhibit virus replication; also recorded: no antiviral activity | did not have an effect on virion structure | *25 μM HNP-1 and control peptides did not alter virion structure |  |  | 
4 | HBD-1 (DHYNCVSSGGQCLYSACPIFTKIQGTCYRGKAKCCK; ends and bridges not checked; cysteine pairing not given here; UniProt P60022 33-68, looked up) |  |  |  |  |  |  |  | did not inhibit viral replication |  |  | did not inhibit vaccinia virus replication | 16.02 µM and 16.03 ± 1.20 µM | 
5 | HNP-1 |  |  |  |  |  |  | active against E. coli | did not inhibit virus replication; also recorded: did not inhibit viral replication | did not have an effect on virion structure | *25 μM HNP-1 and control peptides did not alter virion structure | did not inhibit vaccinia virus replication |  | 8.42 µM and 8.42 ± 0.43 µM
